# Patent US10736968B2, “Cellular signalling inhibitors, their formulations and methods thereof” (INVICTUS ONCOLOGY PVT. LTD., priority 2016, dated 2020)
# System: AKT-mTOR-p70S6K pathway
# Assay: Downstream signaling in macrophages after drug washout and MCSF exposure (Western blot)
# Assay type: cell-based
# Settings: 4 hours drug, washout 7 h or 48 h, MCSF 2 h
smiles,measurement,value
FC(F)(F)c1ccc(CNc2ccc(Cc3c[nH]c4ncc(Cl)cc34)cn2)cn1 [PLX3397],AKT-mTOR-p70S6K downstream signaling,not by BLZ945 and PLX3397
